From patent US20080194640A1, “Optically Active Tetrahydronaphthalene Derivative” (priority 2005, published 2008)
Converted amounts (≈) assume the structure as drawn.

Columns and labels:
[1] = Solubility test (Japanese Pharmacopoeia Solution 2); type: physicochemical; conditions: for solubility after 30 min: Japanese Pharmacopoeia Solution 2, 37° C., shaken 30 min
Method: An adequate amount of a sample was taken, and a test solution (The Japanese Pharmacopoeia Solution 2) was added to each to a concentration of about 1 mg/ml. The sample was dispersed by ultrasonication for 2 min, shaken at 37° C. for 30 min, and the solution was filtered through DISMIC13HP ([…]). The filtrate in the early stage (3 ml) was removed, the subsequent filtrate (500 μl) was precisely measured, and the dilution solution (water/acetonitrile/trifluoroacetic acid mixture=500:500:1, 500 μl) was accurately added to give a sample solution. The sample solution and the standard solution prepared in Experimental Example 5 were subjected to the measurement under the similar HPLC conditions as in Experimental Example 5.

[2] = Dissolution test (JP Dissolution Test Method 2, paddle method); type: physicochemical; conditions: JP second fluid 900 ml, paddle 50 rpm, 37° C., about 10 mg based on free form
Method: The compounds obtained in Examples 22, 24 and 25, free base•Form-I crystal, and the racemate of the compound of Example 3 were subjected to a dissolution test, and the dissolution rate was compared. According to this test method, the amount of dissolution relative to the content of each compound in the test solution is expressed in the dissolution rate (%), which was measured over time.
For the method of adding each compound, the compound (about 10 mg based on free form) was precisely weighed and directly added to a vessel. As the test solution, The Japanese Pharmacopoeia second fluid (900 ml) was used, and the test was performed according to The Japanese Pharmacopoeia Dissolution Test Method 2 (Paddle Method) at 50 rpm. The test temperature was 37° C. After the start of the test, solution for dissolution (10 ml) was taken at suitable times, and a test solution (10 ml) heated to 37° C. was soon carefully added for compensation. The collected solution for dissolution was passed through a filter (DISMIC 13HP PTFE (0.45 μm); Toyo Roshi Kaisha). The filtrate in the early stage (5 ml) was removed, the subsequent filtrate (500 μl) was precisely measured, and the dilution solution (water/acetonitrile/trifluoroacetic acid mixture=500:500:1, 500 μl) was accurately added to give a sample solution.
Separately, about 10 mg of the free base•Form-I crystal was precisely weighed, and a dilution solution (water/acetonitrile/trifluoroacetic acid mixture=500:500:1) was added to 50 ml sharp. This solution (2.5 ml) was precisely measured, and a dilution solution (water/acetonitrile/trifluoroacetic acid mixture=500:500:1) was added to 50 ml sharp. This was used as the standard solution of free base•Form-I crystal (10 μg/ml). The sample solution and the standard solution were measured under the HPLC conditions shown below, the peak areas AT and AS of the free base•Form-I crystal in each solution were measured, and the dissolution rate was determined by the following formula.
The nth dissolution rate (%) of free base•Form-I crystal=Wn/W100%×100 • W1: the first dissolution amount (mg) of free base•Form-I crystal
=(900×AT1)×WS/AS/1000 • Wn: the nth (n>1) dissolution amount (mg) of free base•Form-I crystal
={900×ATn+10×(AT1+AT2 . . . +ATn−1)}×WS/AS/1000 • W100%: cast amount (mg) of drug substance • Ws: collected amount (mg) of free base•Form-I crystal standard product • As: peak area of free base•Form-I crystal in standard solution • AT1: peak area of free base•Form-I crystal in sample solution by the first sampling • ATn: peak area of free base•Form-I crystal in sample solution by the nth sampling. • For racemate, the dissolution rate was calculated based on the total value of S form and R form. […]

C5a receptor = target: T1, C5a receptor (Homo sapiens, UniProt P21730); assay: C5a receptor binding assay ([125I]-human C5a, human peripheral blood neutrophil); conditions: [125I]-C5a 200 pM, 4° C. for 2 hr, read-out: IC50 value, inhibition of [125I]-human C5a binding
T1 construct: neutrophil fraction was separated from human peripheral intravenous blood; endogenous in cells; host or cells: human peripheral blood neutrophils (whole cells)
T1 sequence (P21730 1-350): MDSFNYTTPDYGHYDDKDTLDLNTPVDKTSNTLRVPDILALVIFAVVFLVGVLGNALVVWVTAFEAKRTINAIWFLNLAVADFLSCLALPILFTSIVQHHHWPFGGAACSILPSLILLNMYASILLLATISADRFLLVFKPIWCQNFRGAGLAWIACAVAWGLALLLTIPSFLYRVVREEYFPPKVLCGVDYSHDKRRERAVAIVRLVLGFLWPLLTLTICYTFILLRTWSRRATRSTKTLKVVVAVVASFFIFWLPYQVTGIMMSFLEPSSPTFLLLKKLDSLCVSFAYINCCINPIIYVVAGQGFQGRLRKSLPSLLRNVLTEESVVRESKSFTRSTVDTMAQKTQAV
Method: The C5a receptor binding inhibitory action of C5a and the test compound was evaluated by a receptor binding assay comprising of human peripheral blood neutrophil, which expresses the C5a receptor, and [^125I]-human C5a (Amersham Pharmacia Biotech) in a MultiScreen (MILLIPORE). First, neutrophil fraction was separated from human peripheral intravenous blood using lympholyte-poly (Cedarlane), and suspended in a Binding buffer [50 mM HEPES, 1 mM CaCl2, 5 mM MgCl2, 0.5% bovine albumin (BSA, SIGMA), 0.02% NaN3 (pH 7.2)]. The binding assay was started by the addition of 1×10^5 cells/50 μL neutrophil suspension, 25 μL of a test compound solution (obtained by dissolving the test compound in N,N-dimethylformamide to a final concentration of 10 mmol/L and diluting with binding buffer), and 25 μL of [^125I]-C5a solution (final concentration 200 pM), to each well of the MultiScreen. […] After drying the MultiScreen, the radioactivity on the filter was measured using a gamma counter.
The rate of inhibition (% inhibition) of C5a binding by the test compound was calculated by the following formula using the count value obtained without addition of the test compound as Total, the count value obtained with addition of non-labeled C5a as Non, and the count value obtained with addition of the test compound as Test. […]

[3] = system: collagen-induced arthritis; assay: Collagen-induced arthritis in monkey (articular swelling score); type: in vivo, cynomolgus monkey
[4] = Evaluation of biological availability (bioavailability) in rat; type: in vivo; conditions: for AUC: rat, fasted female SD rats, plasma
Method: Free base•Form-I crystal was administered to female SD rats fasted from the day before the experiment and the plasma concentration was measured under the following conditions. As a result, the areas under blood concentration-time curve (AUC) of the drug after intravenous administration and oral administration are as shown in Table 1.
• Dosing formulation: 0.5 mg/ml in aqueous physiological saline. • Dose: 1 mg/2 ml/kg • Administration method: bolus administration from the tail vein Collection of blood samples: About 0.1-0.2 mL of blood was taken from the cervical vein at 3 min, 10 min, 30 min, 1 hr, 2 hr, 4 hr and 6 hr after administration. The blood was centrifuged, and the plasma was separated.
• Dosing formulation: 2 mg/ml suspension adjusted by gradually adding aqueous hydroxypropylmethylcellulose solution to the compound of the present invention thoroughly triturated in an agate mortar. • Dose: 10 mg/5 ml/kg • Administration method: Forcible administration into the stomach • Collection of blood samples: About 0.1-0.2 mL of blood was taken from the cervical vein at 30 min, 1 hr, 2 hr, 4 hr, 6 hr, 8 hr and 24 hr after administration. The blood was centrifuged, and the plasma was separated.
The plasma concentration of the administered compound was measured by LC-MS/MS.
LC conditions • Column: Capcellpak C18 UG-120 (2.0φ mm×50 mm, S-5 μm, Shiseido Co., Ltd.) • Mobile phase: acetonitrile • Flow rate: 0.25 mL/min • Column temperature: room temperature • Auto sampler temperature set to: 25° C. • Gradient setting: • 0 min→0.6 min:25%→25% • 0.6 min→3.6 min:25%→75% • 3.6 min→6 min:75%→75% • 6 min→6.1 min:75%→25% • 6.1 min→9.5 min:25%→25% • MS/MS conditions • Ionization method: ESI • Capillary temperature: 350° C. • Sheath gas pressure: 80 psi • Spray voltage: 4.5 kV.
The plasma concentration of the racemate was measured by a similar method, and the biological availability was calculated and found to be 20%.

[5] = system: C5a stimulated neutrophil; assay: Production of reactive oxygen species in C5a-stimulated neutrophil; type: cell-based; conditions: human neutrophil, C5a 3 nmol/L, luminol luminescence, 37° C.; read-out: IC50 value, inhibition of production of reactive oxygen species in C5a stimulated neutrophil
Method: A neutrophil fraction was separately taken from human peripheral venous blood using Lympholyte-poly (Cedarlane), and suspended in Hank's Balanced Salt Solution (HBSS, GIBCO BRL) containing 1% fetal bovine serum (FBS) and 1 mmol/L luminol (Wako Pure Chemical Industries, Ltd.). Reactive oxygen species was measured using a luminometer (MicroLumat, Berthold) for 96-well plate. […] Then, 25 μL of C5a (final concentration 3 nmol/L) was added and luminescence produced by the reaction of the luminol and the reactive oxygen species was measured with the lapse of time for 15 min. The rate of inhibition (% inhibition) of the production of reactive oxygen species in C5a stimulated neutrophil by the test compound was calculated by the following formula, wherein the peak value of the production of reactive oxygen species derived by C5a without addition of the test compound is Max, the peak value of the production of reactive oxygen species without addition of the test compound and without C5a stimulation is Min, and the peak value of the production of reactive oxygen species derived by C5a with the addition of the test compound is Test. […]

SMILES: CCn1cc(CN(C(=O)[C@H]2CCCc3c(O)cccc32)c2ccc(C(C)C)nc2)cn1 [Example 23, (1S)-(−)-N-[(1-ethyl-1H-pyrazol-4-yl)methyl]-5-hydroxy-N-(6-isopropylpyridin-3-yl)-1,2,3,4-tetrahydronaphthalene-1-carboxamide]
- solubility relative to free base•Form-I crystal ([1]; JP Solution 2, 37° C., 30 min): 2.5 fold
- solubility relative to the racemate ([1]; JP Solution 2, 37° C., 30 min): about 5 fold
- solubility after 30 min [1]: 165 µg/mL (≈ 394 µM)

SMILES: CCn1cc(CN(C(=O)[C@H]2CCCc3c(O)cccc32)c2ccc(C(C)C)nc2)cn1 [Example 22, (1S)-(−)-N-[(1-ethyl-1H-pyrazol-4-yl)methyl]-5-hydroxy-N-(6-isopropylpyridin-3-yl)-1,2,3,4-tetrahydronaphthalene-1-carboxamide]
- dissolution rate (comparison) [2]: faster than that of the free base•Form-I crystal

SMILES: CCn1cc(CN(C(=O)[C@H]2CCCc3c(O)cccc32)c2ccc(C(C)C)nc2)cn1.Cl [Example 24, (1S)-(−)-N-[(1-ethyl-1H-pyrazol-4-yl)methyl]-5-hydroxy-N-(6-isopropylpyridin-3-yl)-1,2,3,4-tetrahydronaphthalene-1-carboxamide monohydrochloride]
- dissolution rate (comparison) [2]: faster than that of the free base•Form-I crystal

SMILES: CCn1cc(CN(C(=O)[C@H]2CCCc3c(O)cccc32)c2ccc(C(C)C)nc2)cn1 [Example 3, (1S)-(−)-N-[(1-ethyl-1H-pyrazol-4-yl)methyl]-5-hydroxy-N-(6-isopropylpyridin-3-yl)-1,2,3,4-tetrahydronaphthalene-1-carboxamide]
- IC50 (C5a receptor): 10 nM
- solubility after 30 min ([1]; listed as free base•Form-I crystal): 66 µg/mL (≈ 158 µM)
- articular swelling score, average ([3]; before administration, cynomolgus monkey, 10 per group, control group average 49): 49
- articular swelling score, average ([3]; day 14 of administration, oral, day 36 to day 50, control group average 82): 61
- effect on aggravation of arthritis ([3]; oral administration day 36 to day 50, cynomolgus monkey): significantly suppressed aggravation of arthritis
- biological availability ([4]; female SD rats, oral 10 mg/kg vs intravenous 1 mg/kg): 62%
- AUC ([4]; intravenous administration 1 mg/kg): 264 ng·h/mL
- AUC ([4]; oral administration 10 mg/kg): 1640 ng·h/mL
- IC50 [5]: 2.8 nM

SMILES: Br.CCn1cc(CN(C(=O)[C@H]2CCCc3c(O)cccc32)c2ccc(C(C)C)nc2)cn1 [Example 25, (1S)-(−)-N-[(1-ethyl-1H-pyrazol-4-yl)methyl]-5-hydroxy-N-(6-isopropylpyridin-3-yl)-1,2,3,4-tetrahydronaphthalene-1-carboxamide monohydrobromide]
- dissolution rate (comparison) [2]: faster than that of the free base•Form-I crystal
